{"source": "paper PMC7476666", "about": "(Journal of the American Chemical Society, 2016)", "key": {"EphB3 WT": {"molecular_target": "T1, EphB3 WT (Homo sapiens, UniProt P54753)", "T1 sequence (P54753 34-998)": "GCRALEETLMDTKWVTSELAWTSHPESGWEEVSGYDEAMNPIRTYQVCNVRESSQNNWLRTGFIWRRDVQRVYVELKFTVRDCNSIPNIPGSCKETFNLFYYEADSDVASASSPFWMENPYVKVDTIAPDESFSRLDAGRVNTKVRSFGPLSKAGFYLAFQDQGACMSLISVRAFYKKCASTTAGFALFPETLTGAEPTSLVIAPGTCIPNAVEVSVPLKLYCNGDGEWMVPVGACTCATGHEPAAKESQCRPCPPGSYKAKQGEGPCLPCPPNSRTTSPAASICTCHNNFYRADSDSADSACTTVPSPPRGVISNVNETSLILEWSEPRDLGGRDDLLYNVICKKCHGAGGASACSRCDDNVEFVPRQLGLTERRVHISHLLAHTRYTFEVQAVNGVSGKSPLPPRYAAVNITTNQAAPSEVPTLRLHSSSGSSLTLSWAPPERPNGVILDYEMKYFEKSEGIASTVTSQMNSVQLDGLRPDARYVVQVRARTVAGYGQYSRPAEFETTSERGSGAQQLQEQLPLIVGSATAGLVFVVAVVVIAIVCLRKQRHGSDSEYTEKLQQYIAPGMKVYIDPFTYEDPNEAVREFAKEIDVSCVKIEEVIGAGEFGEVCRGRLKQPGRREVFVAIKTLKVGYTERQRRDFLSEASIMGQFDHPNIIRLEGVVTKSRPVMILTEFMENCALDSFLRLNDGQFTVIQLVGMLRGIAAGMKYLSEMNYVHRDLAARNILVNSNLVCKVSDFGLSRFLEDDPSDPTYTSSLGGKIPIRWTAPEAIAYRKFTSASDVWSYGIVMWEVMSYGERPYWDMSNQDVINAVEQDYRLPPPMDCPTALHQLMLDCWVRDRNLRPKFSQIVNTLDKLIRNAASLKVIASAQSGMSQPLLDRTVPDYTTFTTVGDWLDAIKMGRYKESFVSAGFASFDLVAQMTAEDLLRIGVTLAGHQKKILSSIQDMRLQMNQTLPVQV", "test": "EphB3 autophosphorylation in transfected HEK293 cells", "type": "cell-based", "conditions": "read-out: IC50, EphB3 autophosphorylation in cells"}, "EphB3 [1]": {"molecular_target": "T2, EphB3 (Homo sapiens, UniProt P54753)", "T2 sequence (P54753 34-998)": "T1 sequence (P54753 34-998)", "test": "Competition with probe 10 for EphB3 labeling in cell lysate", "type": "binding"}, "EphB3 [2]": {"molecular_target": "T2, EphB3", "test": "Competition / pulse-chase with probe 10 for EphB3 occupancy in HEK293 cells"}}, "data": [{"compound": "Cc1ccc(C(=O)Nc2cccc(C(F)(F)F)c2)cc1Nc1nc(-c2cccnc2)nc2c1cnn2C", "note": "[BHG-712]", "values": [{"measurement": "IC50", "setting": "EphB3 WT", "result": 0.32, "unit": "µM"}, {"measurement": "time to engage EphB3 (preincubation required to compete off labeling by 10)", "setting": "EphB3 [1]", "result": "over 10 min"}, {"measurement": "time to engage EphB3 (preincubation required to block labeling by 10)", "setting": "EphB3 [2]; live cells", "result": "over 10 min"}, {"measurement": "IC50", "setting": "EphB3 [2]; read-out: IC50 for probe labeling of EphB3, competition with 10 (10 nM) in cells", "result": 0.26, "unit": "µM"}]}]}
